Data on four substances can be found in US20230263822A1, “MODULATION OF FACTOR 11 EXPRESSION” (Ionis Pharmaceuticals, Inc., priority 2008, published 2023).

For data set [1] the following is noted: mouse, in vivo, sc, 50 mg/kg.
The conditions of data set [2]: mouse, in vivo, sc, 50 mg/kg. This is another data set of the same source.
For data set [3] the following is noted: mouse, in vivo, sc, 50 mg/kg. The source holds these as a separate data set.

Take “ISIS 416849: MOE gapmer, nucleobases 1275 to 1318 of SEQ ID NO: 1 (Table 8) (antisense GCACAGTTTCTGGCAGGCCT; MOE gapmer, wing and gap sizes not given here)”: in data set [1], the HCT was 48%, the Lymphocyte came to 6967 cells/μL, the Neutrophil is listed as 1522 cells/μL and the Platelets is recorded as 744 10^3/μL. Also, in data set [1], the RBC is given as 9 10^6/μL, the WBC is 9 10^3/μL, the hemoglobin was found to be 14 g/dL and the monocytes turned out to be 253 cells/μL. This substance also yielded a BUN in data set [2] of 23 mg/dL. In data set [3], the ALT is recorded as 1056 IU/L, the AST was 582 IU/L, the Bilirubin stood at 0.22 mg/dL and the Cholesterol amounted to 109 mg/dL.

As for “ISIS 416853: MOE gapmer, nucleobases 1275 to 1318 of SEQ ID NO: 1 (Table 8) (antisense TTGGTGCACAGTTTCTGGCA; MOE gapmer, wing and gap sizes not given here)”, in data set [1], the HCT came out at 56%, the Lymphocyte worked out at 5184 cells/μL, the Neutrophil came to 2040 cells/μL and the Platelets is reported as 801 10^3/μL. In data set [1], the RBC is given as 11 10^6/μL, the WBC is given as 8 10^3/μL, the hemoglobin turned out to be 17 g/dL and the monocytes was determined as 225 cells/μL. This substance had a BUN in data set [2] of 22 mg/dL. In data set [3], this substance came in with an ALT of 1023 IU/L, an AST of 1087 IU/L, a Bilirubin of 0.25 mg/dL and a Cholesterol of 164 mg/dL.

In the case of “ISIS 416854: MOE gapmer, nucleobases 1275 to 1318 of SEQ ID NO: 1 (Table 8) (antisense ATTGGTGCACAGTTTCTGGC; MOE gapmer, wing and gap sizes not given here)”, in data set [1], the HCT was 43%, the Lymphocyte amounted to 9375 cells/μL, the Neutrophil came to 2082 cells/μL and the Platelets was 1060 10^3/μL. In data set [1], the RBC is 9 10^6/μL, the WBC is 12 10^3/μL, the hemoglobin was determined as 13 g/dL and the monocytes was 455 cells/μL. Moreover, in data set [2], the BUN is listed as 27 mg/dL. In data set [3], this substance yielded an ALT of 1613 IU/L, an AST of 1140 IU/L, a Bilirubin of 0.21 mg/dL and a Cholesterol of 199 mg/dL.

On to “ISIS 416855: MOE gapmer, nucleobases 1275 to 1318 of SEQ ID NO: 1 (Table 8) (antisense CATTGGTGCACAGTTTCTGG; MOE gapmer, wing and gap sizes not given here)”, for which, in data set [1], the HCT worked out at 50%, the Lymphocyte is recorded as 4236 cells/μL, the Neutrophil is given as 1443 cells/μL and the Platelets is 784 10^3/μL. Further, in data set [1], the RBC is listed as 9 10^6/μL, the WBC is recorded as 6 10^3/μL, the hemoglobin was determined as 14 g/dL and the monocytes amounted to 263 cells/μL. For the same substance, the BUN in data set [2] is 23 mg/dL. In addition, in data set [3], the ALT worked out at 786 IU/L, the AST is given as 580 IU/L, the Bilirubin was found to be 0.25 mg/dL and the Cholesterol is given as 162 mg/dL.
